Target: T1, soluble human BACE (Homo sapiens, UniProt P56817)
T1 construct: cells secreting human recombinant soluble BACE; made in house; conditioned medium
Assay: BACE activity Cell Free Assay (ELISA of cleaved synthetic APP substrate)
Type: biochemical
Protocol: A synthetic APP substrate that can be cleaved by beta˜secretase and having N-terminal biotin is used to assay beta-secretase activity in the presence or absence of the inhibitory compounds. […] The substrate and test compounds are added to 384 well polypropylene plates. The reaction is initiated by the addition of soluble BACE enzyme to a final volume of 12.5 μL per well. The final assay conditions are: 0.001˜300 μM compound inhibitor, 0.05M sodium acetate (pH 4.5), 3 μM substrate, soluble human BACE, and 2% DMSO. Concentrated conditioned media from cells secreting human recombinant soluble BACE was titrated to provide a source of BACE enzyme. The cell media can be used as either a crude BACE prep or BACE can be purified using any number of techniques, including immobilized BACE inhibitor purification columns. The assay mixture is incubated for 1 hour at 37° C., and the reaction is quenched by the addition of an equal volume of 0.1M Tris, pH 8. Half of the quenched mix is incubated on clear streptavidin coated 384 well polystyrene plates for 1 hour. An ELISA is then performed using an in˜house antibody that specifically recognizes the new C˜terminus created after cleavage by BACE. […] (These polyclonal antibodies were raised in rabbits by immunizing with antigen comprised of six amino acid residues present at the carboxy terminus of the wild-type soluble APPbeta sequence (NH2-ISEVKM-COOH) or seven amino acid residues present at the carboxy terminus of the Swedish mutation at the beta cleavage site (NH2-EISEVNL˜COOH) conjugated to keyhole limpet hemacyanin by methods known to those skilled in the art.) A secondary anti˜species Horseradish Peroxidase (HRP) conjugated antibody is then utilized. The readout, following assay development with TMB substrate and quenching with 0.09M sulfuric acid, is absorbance at 450 nm.

T1 sequence (P56817 46-457 limits assumed): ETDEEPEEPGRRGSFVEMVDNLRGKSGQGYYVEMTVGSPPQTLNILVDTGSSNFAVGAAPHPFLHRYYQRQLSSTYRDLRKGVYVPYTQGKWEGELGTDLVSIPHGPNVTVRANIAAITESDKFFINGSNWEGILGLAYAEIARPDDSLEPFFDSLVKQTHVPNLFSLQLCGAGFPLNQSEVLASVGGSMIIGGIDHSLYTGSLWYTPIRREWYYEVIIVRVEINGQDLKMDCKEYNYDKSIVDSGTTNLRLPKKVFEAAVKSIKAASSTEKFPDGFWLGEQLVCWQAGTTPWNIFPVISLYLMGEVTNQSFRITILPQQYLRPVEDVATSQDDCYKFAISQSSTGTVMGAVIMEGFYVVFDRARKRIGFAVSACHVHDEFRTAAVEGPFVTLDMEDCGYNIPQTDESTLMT

Row | Structure (SMILES) | IC50
1 | CC1CC2(C=CC(=O)N2c2cccc(F)c2)CCN1Cc1cccc(-c2ccc(C(F)(F)F)cn2)c1 (racemic) [Example 30, Racemic (5R,7S),(5S,7R)-1-(3-fluorophenyl)-7-methyl-8-{3-[5-(trifluoromethyl)pyridin-2-yl]benzyl}-1,8-diazaspiro[4.5]dec-3-en-2-one] | 100 to 300 µM
2 | CCNc1ccc(CN2CCC3(C=CC(=O)N3c3cccc(F)c3)CC2C)cn1 (racemic) [Example 31, Racemic (5R,7S),(5S,7R)-8-{[6-(ethylamino)pyridin-3-yl]methyl}-1-(3-fluorophenyl)-7-methyl-1,8-diazaspiro[4.5]dec-3-en-2-one] | 100 to 300 µM
3 | CCCNc1ccc(CN2CCC3(C=CC(=O)N3c3cccc(F)c3)CC2C)cn1 (racemic) [Example 32, Racemic (5R,7S),(5S,7R)-1-(3-fluorophenyl)-7-methyl-8-{[6-(propylamino)pyridin-3-yl]methyl}-1,8-diazaspiro[4.5]dec-3-en-2-one] | 100 to 300 µM
4 | CCOc1cccc(CN2CCC3(CCC(=O)N3c3cccc(F)c3)CC2C)c1 (racemic) [Example 33, Racemic (5R,7S),(5S,7R)-8-(3-ethoxybenzyl)-1-(3-fluorophenyl)-7-methyl-1,8-diazaspiro[4.5]decan-2-one] | 100 to 300 µM
5 | Cc1ccc(Oc2cccc(CN3CCC4(CCC(=O)N4c4cccc(F)c4)CC3C)c2)cc1 (racemic) [Example 34, Racemic (5R,7S),(5S,7R)-1-(3-fluorophenyl)-7-methyl-8-[3-(4-methylphenoxy)benzyl]-1,8-diazaspiro[4.5]decan-2-one] | 10 to 100 µM
6 | COc1ccc(Oc2cccc(CN3CCC4(CCC(=O)N4c4cccc(F)c4)CC3C)c2)cc1 (racemic) [Example 35, Racemic (5R,7S),(5S,7R)-1-(3-fluorophenyl)-8-[3-(4-methoxyphenoxy)benzyl]-7-methyl-1,8-diazaspiro[4.5]decan-2-one] | 10 to 100 µM
7 | CC1CC2(CCC(=O)N2c2cccc(F)c2)CCN1Cc1cccc(S(=O)(=O)N2CCCC2)c1 (racemic) [Example 36, Racemic (5R,7S),(5S,7R)-1-(3-fluorophenyl)-7-methyl-8-[3-(pyrrolidin-1-ylsulfonyl)benzyl]-1,8-diazaspiro[4.5]decan-2-one] | 100 to 300 µM
8 | CC1CC2(CCC(=O)N2c2cccc(F)c2)CCN1Cc1ccc(O)cc1 (racemic) [Example 37, Racemic (5R,7S),(5S,7R)-1-(3-fluorophenyl)-8-(4-hydroxybenzyl)-7-methyl-1,8-diazaspiro[4.5]decan-2-one] | 10 to 100 µM
9 | Cc1cc(CN2CCC3(CCC(=O)N3c3cccc(F)c3)CC2C)ccc1O (racemic) [Example 38, Racemic (5R,7S),(5S,7R)-1-(3-fluorophenyl)-8-(4-hydroxy-3-methylbenzyl)-7-methyl-1,8-diazaspiro[4.5]decan-2-one] | 10 to 100 µM
10 | CCCn1nccc1CN1CCC2(CCC(=O)N2c2cccc(F)c2)CC1C (racemic) [Example 39, Racemic (5R,7S),(5S,7R)-1-(3-fluorophenyl)-7-methyl-8-[(1-propyl-1H-pyrazol-5-yl)methyl]-1,8-diazaspiro[4.5]decan-2-one] | 100 to 300 µM
11 | CC1CC2(CCC(=O)N2c2cccc(F)c2)CCN1Cc1ccc2[nH]ccc2c1 (racemic) [Example 40, Racemic (5R,7S),(5S,7R)-1-(3-fluorophenyl)-8-(1H-indol-5-ylmethyl)-7-methyl-1,8-diazaspiro[4.5]decan-2-one] | 100 to 300 µM
12 | CC1CC2(CCC(=O)N2c2cccc(F)c2)CCN1Cc1ccc(O)c(C#N)c1 (racemic) [Example 41, Racemic (5R,7S),(5S,7R)-1(3-fluorophenyl)-7-methyl-2-oxo-1,8-diazaspiro[4.5]dec-8-yl]methyl}-2-hydroxybenzonitrile] | 10 to 100 µM
13 | COc1cc(CN2CCC3(CCC(=O)N3c3cccc(F)c3)CC2C)ccc1O (racemic) [Example 42, Racemic (5R,7S),(5S,7R)-1-(3-fluorophenyl)-8-(4-hydroxy-3-methoxybenzyl)-7-methyl-1,8-diazaspiro[4.5]decan-2-one] | 10 to 100 µM
14 | COc1ccc(F)c(CN2CCC3(CCC(=O)N3c3cccc(F)c3)CC2C)c1 (racemic) [Example 43, Racemic (5R,7S),(5S,7R)-8-(2-fluoro-5-methoxybenzyl)-1-(3-fluorophenyl)-7-methyl-1,8-diazaspiro[4.5]decan-2-one] | 100 to 300 µM
15 | CC1CC2(CCC(=O)N2c2cccc(F)c2)CCN1Cc1ccc(O)c(Cl)c1 (racemic) [Example 44, Racemic (5R,7S),(5S,7R)-8-(3-chloro-4-hydroxybenzyl)-1-(3-fluorophenyl)-7-methyl-1,8-diazaspiro[4.5]decan-2-one] | 10 to 100 µM
16 | CC(C)Oc1cccc(CN2CC[C@]3(CCC(=O)N3c3cccc(F)c3)C[C@@H]2C)c1 (racemic) [Example 45, Racemic (5R,7S),(5S,7R)-1-(3-fluorophenyl)-8-(3-isopropoxybenzyl)-7-methyl-1,8-diazaspiro[4.5]decan-2-one] | 10 to 100 µM
17 | CCCOc1cccc(CN2CCC3(CCC(=O)N3c3cccc(F)c3)CC2C)c1 (racemic) [Example 46, Racemic (5R,7S),(5S,7R)-1-(3-fluorophenyl)-7-methyl-8-(3-propoxybenzyl)-1,8-diazaspiro[4.5]decan-2-one] | 10 to 100 µM
18 | CCCCOc1cccc(CN2CCC3(CCC(=O)N3c3cccc(F)c3)CC2C)c1 (racemic) [Example 47, Racemic (5R,7S),(5S,7R)-8-(3-butoxybenzyl)-1-(3-fluorophenyl)-7-methyl-1,8-diazaspiro[4.5]decan-2-one] | 100 to 300 µM
19 | CC(C)COc1cccc(CN2CCC3(CCC(=O)N3c3cccc(F)c3)CC2C)c1 (racemic) [Example 48, Racemic (5R,7S),(5S,7R)-1-(3-fluorophenyl)-8-(3-isobutoxybenzyl)-7-methyl-1,8-diazaspiro[4.5]decan-2-one] | 100 to 300 µM
20 | CC1CC2(CCC(=O)N2c2cccc(F)c2)CCN1Cc1cccc(-c2cccnc2)c1 (racemic) [Example 49, Racemic (5R,7S),(5S,7R)-1-(3-fluorophenyl)-7-methyl-8-(3-pyridin-3-ylbenzyl)-1,8-diazaspiro[4.5]decan-2-one] | 100 to 300 µM
21 | CC1CC2(CCC(=O)N2c2cccc(F)c2)CCN1Cc1cccc(OC2CCCC2)c1 (racemic) [Example 50, Racemic (5R,7S),(5S,7R)-8-[3-(cyclopentyloxy)benzyl]-1-(3-fluorophenyl)-7-methyl-1,8-diazaspiro[4.5]decan-2-one] | 100 to 300 µM
22 | Cc1ccncc1-c1cccc(CN2CCC3(CCC(=O)N3c3cccc(F)c3)CC2C)c1 (racemic) [Example 51, Racemic (5R,7S),(5S,7R)-1-(3-fluorophenyl)-7-methyl-8-[3-(4-methylpyridin-3-yl)benzyl]-1,8-diazaspiro[4.5]decan-2-one] | 10 to 100 µM
23 | CC1CC2(CCC(=O)N2c2cccc(F)c2)CCN1Cc1cccc(Oc2ccccc2)c1 (racemic) [Example 52, Racemic (5R,7S),(5S,7R)-1-(3-fluorophenyl)-7-methyl-8-(3-phenoxybenzyl)-1,8-diazaspiro[4.5]decan-2-one] | 10 to 100 µM
24 | CC1CC2(CCC(=O)N2c2cccc(F)c2)CCN1Cc1cc(Br)ccc1F (racemic) [Example 53, Racemic (5R,7S),(5S,7R)-8-(5-bromo-2-fluorobenzyl)-1-(3-fluorophenyl)-7-methyl-1,8-diazaspiro[4.5]decan-2-one] | 100 to 300 µM
25 | CC1CC2(CCC(=O)N2c2cccc(F)c2)CCN1Cc1nc(-c2ccc(C#N)cc2)cs1 (racemic) [Example 54, Racemic 4-(2-{[(5R,7S),(5S,7R)-1-(3-fluorophenyl)-7-methyl-2-oxo-1,8-diazaspiro[4.5]dec-8-yl]methyl}-1,3-thiazol-4-yl)benzonitrile] | 100 to 300 µM
26 | CC1CC2(CCC(=O)N2c2cccc(F)c2)CCN1Cc1cccc(Oc2ccc(Cl)cc2)c1 (racemic) [Example 55, Racemic (5R,7S),(5S,7R)-8-[3-(4-chlorophenoxy)benzyl]-1-(3-fluorophenyl)-7-methyl-1,8-diazaspiro[4.5]decan-2-one] | 10 to 100 µM
27 | CC(=O)Nc1ccc(CN2CCC3(C=CC(=O)N3c3cccc(F)c3)CC2C)cc1 (racemic) [Example 59, Racemic N-(4-{[(5R,7S),(5S,7R)-1-(3-fluorophenyl)-7-methyl-2-oxo-1,8-diazaspiro[4.5]-3-en 8-yl]methyl}phenyl)acetamide] | 1 to 10 µM
28 | CC1CC2(C=CC(=O)N2c2cccc(F)c2)CCN1Cc1ccnn1CC(F)(F)F (racemic) [Example 60, Racemic (5R,7S),(5S,7R)-1-(3-fluorophenyl)-7-methyl-8-{[1-(2,2,2-trifluoroethyl)-1H-pyrazol-5-yl]methyl}-1,8-diazaspiro[4.5]dec-3-en-2-one] | 10 to 100 µM
29 | CC1CC2(C=CC(=O)N2c2cccc(F)c2)CCN1Cc1c[nH]c2ccc(C#N)cc12 (racemic) [Example 61, Racemic 3-{[(5R,7S),(5S,7R)-1-(3-fluorophenyl)-7-methyl-2-oxo-1,8-diazaspiro[4.5]dec-3-en-8-yl]methyl}-1H-indole-5-carbonitrile] | 10 to 100 µM

Source: patent US20110224231A1, “Novel Lactams as Beta Secretase Inhibitors” (Pfizer Inc., priority 2008, published 2011)
